Results as given in patent US7928057B2, “Peptide for inhibition of calcineurin, nucleic acid, antibody, and diagnostic and therapeutic methods of use” (Julius-Maximilians-Universitaet Wuerzburg, priority 2006, dated 2011).
Entries after “also recorded” stand apart in the source; their conditions may differ. Where no end group is shown, it is not given here.

Columns and labels:
[1] = target: T1, CRM1 (Rattus norvegicus, UniProt Q80U96); assay: CRM1 mediated nuclear export of CnA in cardiomyocytes; assay type: cell-based; settings: full length CnA imported by Ang II stimulation, calpeptin added
T1 construct: endogenous in cells; host or cells: cardiomyocytes (neonatal rat)
Procedure: To address whether CnA nuclear export is mediated by CRM1, experiments using the CRM1 specific inhibitor, leptomycin B (LMB), were performed. Agonist-dependent nuclear import of full length CnA was achieved by Ang II stimulation. Calpeptin was added to prevent proteolysis of CnA.

[2] = test system: cJUN, ERK 1/2, GATA4, NFAT2; assay: Specificity: nuclear accumulation of other transcription factors in phenylephrin stimulated cardiomyocytes; assay type: cell-based; settings: cardiomyocytes stimulated with phenylephrin; FIG. 9
Description: The inventor also analyzed the specificity with the peptide (AAVALLPAVLAALAA KQECKIKYSERV SEQ ID NO: 5). In theory this peptide that mimics the Calcineurin NLS saturates the binding site on importin and therefore might completely block importin function for other transcription factors as well.

[3] = test system: calcineurin (CnA); assay: CnA phosphatase activity (specific phosphosubstrate RII, Biomol kit); assay type: biochemical, rat; settings: cardiomyocytes stimulated with Ang II (10 μM); n=8, p=not significant
Procedure: Neonatal rat cardiomyocytes of Wistar rats were isolated as described previously (Ritter et al., 2003). Cells were resuspended in minimum essential medium/1% FCS. After preplating, the cardiomyocyte containing supernatant was recovered, and cells were plated in minimum essential medium on 6-well plates at a density of 1×10^6 cells per well. The medium for cardiomyocytes contained 5-bromo-2′-deoxyuridine (0.1 mmol/L) to suppress fibroblast growth. Fibroblast contamination of cardiomyocyte cultures was between 4% and 7% as regularly determined by immunohistochemical staining for troponin T. HeLa cells were grown in DMEM/5% FCS (Sigma). […]
NF-ATc reporter plasmid comprised the II-2 promoter followed by luciferase. Luciferase activity was determined according to the manufacturer's protocol (Promega). CnA phosphatase activity was determined using a commercial kit (CnA kit assay, Biomol) that measures effect on a specific CnA phosphosubstrate. […]
Phosphatase activity, transcriptional activity, protein synthesis, cell size and makers of myocardial hypertrophy in response to the peptide related inhibition of CnA nuclear import were examined. Phosphatase activity was assessed employing a specific substrate (RII) for can (Ritter et al., 2002). Cardiomyocytes were stimulated with Ang II (10 μM), and CnA phosphatase activity was measured in the presence of the NLS peptide or a non sense control peptide. […]

[4] = test system: nuclear import of calcineurin (CnA) via importin β1; assay: Peptide competition assay: nuclear import of calcineurin in cardiomyocytes; assay type: cell-based; settings: neonatal rat cardiomyocytes stimulated with Ang II; peptide added to the medium (1 μM)
Procedure: (§1) Neonatal rat cardiomyocytes were incubated with a peptide mimicking the NLS sequence of CnA (SEQ ID NO:2) and stimulated with Ang II ([…]). […] Nuclear import of CnA was therefore prevented. Control experiments were performed with a non-sense peptide SEQ ID NO: 3).
(§2) Neonatal rat cardiomyocytes of Wistar rats were isolated as described previously (Ritter et al., 2003). Cells were resuspended in minimum essential medium/1% FCS. After preplating, the cardiomyocyte containing supernatant was recovered, and cells were plated in minimum essential medium on 6-well plates at a density of 1×10^6 cells per well. The medium for cardiomyocytes contained 5-bromo-2′-deoxyuridine (0.1 mmol/L) to suppress fibroblast growth. Fibroblast contamination of cardiomyocyte cultures was between 4% and 7% as regularly determined by immunohistochemical staining for troponin T. HeLa cells were grown in DMEM/5% FCS (Sigma). 48 hours after preparation, cells were stimulated with […] angiotensin II (Ang II). Cells were harvested 24 hours after stimulation. Concentrations were as follows: Ang II: 10 μM, calpeptin: 10 μM, NLS peptide and control peptide: 1 μM, respectively.
(§3) The subcellular distribution of calcineurin was determined by immunofluorescence stainings. The primary antibodies used in fluorescence staining are described elsewhere (Burkhard et al., 2005). […]

[5] = test system: Ang II treated mice; assay: Ang II (osmotic minipump) induced myocardial hypertrophy in mice; assay type: in vivo; settings: for dilation of the left ventricle (left ventricular end diastolic diameter, LVEDD): mice with implanted mini-osmotic pumps with AngII, FIG. 8; for development of myocardial hypertrophy in vivo (heart/body weight ratio, molecular markers, echocardiography): cyclic peptide 25 mg/kg body weight/day i.p.
Procedure: For in vivo use the blocking peptide, that mimics the calcineurin nuclear localization signal (NLS) received a peptide extension to increase membrane permeability and was synthesised as a cyclic peptide to withstand proteolysis of N- and C-terminal proteases. This peptide was administered twice daily at a concentration of 25 mg/kg body weight/day by i.p. injections into mice. The mice were treated with implanted osmotic minipumps to release either angiotensin II or saline as control.
The inventor now extended his experiments to in vivo data.

[6] = target: T2, calcineurin (CnA)/importin β1 interaction (Homo sapiens, UniProt Q14974); assay: Peptide competition / co-immunoprecipitation of calcineurin with importin β1; assay type: binding; settings: HeLa cells transfected with GFP-tagged CnA mutants (FIG. 3)
T2 construct: expressed in transfected cells; host or cells: HeLa cells (importin β1 endogenous, EGFP-CnAβ transfected)
Procedure: Immunoprecipitation of the CnA/importin complexes was performed with importin β1 antibodies, detection with a GFP antibody.
Epitope-tagged derivatives of calcineurin Aβ containing amino-terminal EGFP were generated using the mammalian expression vector pEGFP-C3 (BD Bioscience Clontech). For cloning of calcineurin mutants the mammalian expression vector pCMV-Sport6 containing the directionally cloned cDNA of human calcineurin Aβ was used (Invitrogen). The following mutants have been amplified by PCR, digested with XbaI and XhoI and cloned into the XbaI and XhoI sites of the described plasmid: CnAβ(full), CnAβ 1-415, CnAβ 1-425, CnAβ 1-445, CnAβ 1-465, CnAβ 1-485 and CnAβ 171-190. For these truncated mutants different reverse oligonucleotides were designed with subsequent N-terminal binding sites. The forward primer, binding at the N-terminus of calcineurin, was identical for each plasmid apart from the CnA(171-190) mutant. For this derivative primers are bound upstream of aa 171 and downstream of aa 190, respectively. Two internal mutants CnAβ(Δ420-434) and CnAβ(Δ420-445) were cloned into the XbaI and XhoI sites of pEGFP-C3 using a two step strategy. […]
as §3

[7] = test system: NFAT Luciferase reporter; assay: NFAT Luciferase reporter transgenic mice treated with angiotensin II; assay type: in vivo
[8] = test system: CnA/NF-ATc signalling pathway; assay: NF-ATc luciferase reporter plasmid transcriptional activity; assay type: cell-based, rat
Procedure: as §2
NF-ATc reporter plasmid comprised the II-2 promoter followed by luciferase. Luciferase activity was determined according to the manufacturer's protocol (Promega). CnA phosphatase activity was determined using a commercial kit (CnA kit assay, Biomol) that measures effect on a specific CnA phosphosubstrate. Free PO4 was indicated by a malachite green dye. The use of this kit has been described previously (Ritter et al., 2002).
(§4) Phosphatase activity, transcriptional activity, protein synthesis, cell size and makers of myocardial hypertrophy in response to the peptide related inhibition of CnA nuclear import were examined. Phosphatase activity was assessed employing a specific substrate (RII) for can (Ritter et al., 2002). Cardiomyocytes were stimulated with Ang II (10 μM), and CnA phosphatase activity was measured in the presence of the NLS peptide or a non sense control peptide. […] Similarly, myocardial hypertrophy, as evidenced by protein synthesis (707±21% vs. 133±12%, n=8, p<0.05), cell size (1191±91 μm^2 vs. 728±65 μm^2, n=8, p<0.05) (FIG. 5B), and expression of brain natriuretic peptide (BNP) (163±11% vs. 88±8%, n=8, p<0.05) (FIG. 5C), were suppressed by the NLS peptide.

[9] = test system: neonatal rat cardiomyocytes; assay: Markers of myocardial hypertrophy in Ang II stimulated cardiomyocytes (protein synthesis, cell size, BNP); assay type: cell-based; settings: cardiomyocytes stimulated with Ang II (10 μM); n=8, p<0.05
Procedure: as §1, §2, §4

[10] = test system: T cells; assay: T cells stimulated with spleen dendritic cells (H3-thymidin incorporation); assay type: cell-based; settings: T cells stimulated with spleen dendritic cells and simultaneously treated with peptide; FIG. 6
Description: Bars indicate protein synthesis (H3-thymidin incorporation).
The inventor now extended the experiments to T-cells and to in vivo experiments in mice.

T2 sequence (Q14974 whole entry): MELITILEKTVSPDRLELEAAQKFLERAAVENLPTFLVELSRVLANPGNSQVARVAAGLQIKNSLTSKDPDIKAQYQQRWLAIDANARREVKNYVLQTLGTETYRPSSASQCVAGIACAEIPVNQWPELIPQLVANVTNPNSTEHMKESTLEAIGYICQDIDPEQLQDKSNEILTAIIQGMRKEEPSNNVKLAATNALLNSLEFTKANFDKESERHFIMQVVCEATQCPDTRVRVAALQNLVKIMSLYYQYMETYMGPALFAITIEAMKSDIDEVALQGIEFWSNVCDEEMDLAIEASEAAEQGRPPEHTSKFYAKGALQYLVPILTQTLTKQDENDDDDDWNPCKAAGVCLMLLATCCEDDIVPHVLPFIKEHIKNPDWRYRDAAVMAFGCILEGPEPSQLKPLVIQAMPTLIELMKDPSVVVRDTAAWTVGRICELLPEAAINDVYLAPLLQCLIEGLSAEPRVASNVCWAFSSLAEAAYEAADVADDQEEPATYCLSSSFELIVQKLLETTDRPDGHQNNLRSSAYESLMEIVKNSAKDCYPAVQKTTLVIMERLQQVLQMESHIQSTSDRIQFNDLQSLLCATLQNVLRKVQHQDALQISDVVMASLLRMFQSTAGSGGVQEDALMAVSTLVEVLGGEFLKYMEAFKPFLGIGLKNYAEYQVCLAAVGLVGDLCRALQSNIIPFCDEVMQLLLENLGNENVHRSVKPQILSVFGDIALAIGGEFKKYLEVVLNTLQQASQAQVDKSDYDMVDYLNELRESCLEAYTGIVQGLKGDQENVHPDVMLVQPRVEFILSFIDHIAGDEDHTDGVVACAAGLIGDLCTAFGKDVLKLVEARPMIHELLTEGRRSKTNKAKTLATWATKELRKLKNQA
T1 sequence (Q80U96 whole entry): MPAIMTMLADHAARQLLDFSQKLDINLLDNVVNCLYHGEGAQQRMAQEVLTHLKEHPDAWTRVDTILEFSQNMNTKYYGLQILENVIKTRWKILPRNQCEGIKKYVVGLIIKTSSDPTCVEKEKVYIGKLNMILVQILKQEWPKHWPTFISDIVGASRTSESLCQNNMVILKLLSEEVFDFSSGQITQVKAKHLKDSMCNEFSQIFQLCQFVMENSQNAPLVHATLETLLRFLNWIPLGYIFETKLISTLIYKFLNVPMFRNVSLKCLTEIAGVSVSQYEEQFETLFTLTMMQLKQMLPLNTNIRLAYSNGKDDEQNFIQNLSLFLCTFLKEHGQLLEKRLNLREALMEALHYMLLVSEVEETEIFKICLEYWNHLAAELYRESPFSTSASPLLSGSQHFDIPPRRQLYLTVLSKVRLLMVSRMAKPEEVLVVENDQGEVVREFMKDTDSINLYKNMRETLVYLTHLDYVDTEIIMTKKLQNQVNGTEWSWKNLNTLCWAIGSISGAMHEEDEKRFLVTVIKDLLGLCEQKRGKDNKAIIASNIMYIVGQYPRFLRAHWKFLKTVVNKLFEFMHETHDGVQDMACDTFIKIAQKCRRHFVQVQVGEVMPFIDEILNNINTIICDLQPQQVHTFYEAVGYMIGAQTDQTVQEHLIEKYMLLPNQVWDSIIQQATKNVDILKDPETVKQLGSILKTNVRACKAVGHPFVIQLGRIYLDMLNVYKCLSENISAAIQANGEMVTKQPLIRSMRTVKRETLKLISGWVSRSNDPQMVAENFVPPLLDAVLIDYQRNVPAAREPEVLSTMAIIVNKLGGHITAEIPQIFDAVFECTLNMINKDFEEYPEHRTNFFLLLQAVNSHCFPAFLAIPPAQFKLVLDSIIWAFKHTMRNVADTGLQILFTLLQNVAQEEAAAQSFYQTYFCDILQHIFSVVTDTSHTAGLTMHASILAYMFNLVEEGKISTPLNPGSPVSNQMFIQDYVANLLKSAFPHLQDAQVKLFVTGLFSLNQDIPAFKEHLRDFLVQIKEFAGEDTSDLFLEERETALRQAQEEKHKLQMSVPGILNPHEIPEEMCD

Row | Compound | nuclear accumulation/import of selected transcription factors (cJUN, ERK 1/2, GATA4, NFAT2) [2] | total CnA phosphatase activity [3] | nuclear import (translocation) of CnA [4] | dilation of the left ventricle (left ventricular end diastolic diameter, LVEDD) [5] | calcineurin interaction/binding with importin β1 [6] | development of myocardial hypertrophy in vivo (heart/body weight ratio, molecular markers, echocardiography) ([5]; Ang II minipump mice) | other results
1 | CCC(=C/[C@H](C)C/C=C/C(C)=C/[C@@H](C)C(=O)[C@@H](C)[C@H](O)[C@@H](C)C/C(C)=C/C(=O)O)/C=C/[C@@H]1OC(=O)C=C[C@@H]1C [LMB, leptomycin B] | – | – | – | – | – | – | nuclear export of CnA [1]: suppressed nuclear export of CnA
2 | AAVALLPAVLAALAA KQECKIKYSERV (AAVALLPAVLAALAAKQECKIKYSERV; alternative nucl loc signal plus membrane anker) [SEQ ID NO: 5] | did not block import | – | – | – | – | – | –
3 | AAVALLPAVLLALLAAQECAIAYSEYV (control peptide and membrane anker) [non sense peptide used in control experiments, reference compound] | – | 289±17% | not inhibited | did not prevent left ventricular dilation | did not interfere with the calcineurin/importin binding | – | –
4 | AAVALLPAVLLALLAKQECKIKYSERV (nuclear localisation signal and membrane anker) [NLS peptide] | – | 273±11% | suppressed calcineurin nuclear import | dilation could prevented | prevented CnA binding to importin β1; also recorded: abrogated the interaction of calcineurin and importin β1 | able to suppress the development of myocardial hypertrophy in vivo | Luciferase activity [7]: suppressed Luciferase activity; transcriptional activity of the CnA/NF-ATc signalling pathway ([8]; cardiomyocytes stimulated with Ang II (10 μM), n=8, p<0.05): 123±8%; transcriptional activity of calcineurin/NF-ATc (NF-ATc luciferase reporter plasmid), in words ([8]; neonatal rat cardiomyocytes, Ang II, FIG. 5A bottom, FIG. 5D): dose dependent manner; f-MHC expression as molecular marker of hypertrophy ([5]; mice treated with angiotensin for 4 weeks, FIG. 7B): prevented expression of this marker; cell size [9]: 728±65 μm^2; expression of brain natriuretic peptide (BNP) [9]: 88±8%; protein synthesis [9]: 133±12%
5 | KQECKIKYSERV [SEQ ID NO: 2] | – | – | – | – | – | – | toxic effect ([8]; higher concentrations (>1 μM), values below background levels of untreated cardiomyocytes, FIG. 5D): toxic effect is possible
6 | blocking peptide: mimics the calcineurin NLS, with peptide extension to increase membrane permeability; synthesised as a cyclic peptide for in vivo use (AAVALLPAVLLALLAKQECKIKYSERV; also: synthesised as cyclic peptide, mode not given here) | did not prevent nuclear accumulation | – | – | – | – | able to prevent the development of myocardial hypertrophy; also recorded: prevents myocardial hypertrophy | T cell protein synthesis (H3-thymidin incorporation) / activation of lymphocytes [10]: inhibited significantly; also recorded: significantly prevented activation of lymphocytes; calcineurin entry into the nucleus in vivo ([5]; Ang II minipump mice, cellular level): suppressed calcineurin entry into the nucleus; heart weight ([5]; mice treated with Ang II for 4 weeks, cyclic peptide with membrane permeability extension, 25 mg/kg body weight/day i.p. twice daily, FIG. 7A): prevented an increase in heart weight
